We go through 1 compound from US8685976B2, “Cell adhesion promoting agent and method of promoting cell adhesion” (Kyoto University, priority 2008, dated 2014).

One data set deals with CHO 745 cells. Nature of the data set: Cell adhesion assay, CHO 745. The format is cell-based. Particulars: CHO 745, 6 μM, vs parental CHO-K1. The procedure: (§1) (A) and (B) show CHO-K1 (wild-type) cells incubated with 1% (v/v) DMSO (A) or 6 μM adhesamine (B). (C) and (D) show CHO 677 incubated with 1% (v/v) DMSO (A) or 6 μM adhesamine (B). […] Cells were seeded onto adhesamine-added or fibronectin-coated plastic wells. The concentrations of adhesamine and fibronectin were 6 μM and 5 μg/mL, respectively. Adhered cells were counted at 5 hours after seeding. Each point represents average±SD.
(§2) For CHO wild-type and CHO mutant cell lines, 100 μL of trypsinized cell suspension in a culture medium was added to each well at a density of 2×10^5 cells/mL. After 5-hour incubation at 37° C., non-adhered cells were removed by washing each well with PBS twice, and the attached cells were counted with a Neubauer counting chamber (Digital Bio). To calculate adhesion rates, the cell numbers before washing were assigned a value of 100%. Each assay was conducted in triplicate, and the means and standard derivations were calculated for a minimum of three independent experiments.

In a further data set the test system is CHO 606 cells. Nature of the data set: Cell adhesion assay, CHO 606. The format is cell-based. The note with it: CHO 606, 6 μM. The procedure:
as §1, §2

The next data set deals with HepG2 cells. Nature of the data set: Cell adhesion assay by addition, HepG2 cells. Particulars: 0.6-60 μM in medium, 3-hour incubation, reattachment after trypsin treatment. The format is cell-based. How it is done:
HepG2 cells were cultured in MEM supplemented with 10% fetal bovine serum (FBS) and 1% penicillin/streptomycin at 37° C. under 5% CO2. Jurkat cells were cultured in RPMI-1640 supplemented with 10% fetal bovine serum (FBS) and 1% penicillin/streptomycin at 37° C. under 5% CO2. For the screening of small molecule compounds, 100 μL of HepG2 suspension (2×10^5 cells/mL) was plated into 96-well plates supplied with each compound at a concentration of 20 μg/mL. After 3, 16, and 24 hours, the cells were subjected to microscopic observation to examine phenotypic changes. CHO K1 cells and CHO mutant cell lines were maintained in Ham's F-12 medium supplemented with 7.5% fetal bovine serum.
1 μL each of an aqueous solution of adhesamine (1), Type I collagen, poly-L-lysine hydrochloride, poly-L-ornithine hydrobromide, and fibronectin at a concentration of 50, 500, and 5000 μg/ml, was added to 96-well plate. […] After 3-hour incubation at 37° C., non-adherent cells were removed by washing each well with PBS three times, and the attached cells were counted with a Neubauer counting chamber (Digital Bio). […] […] Each assay was conducted in triplicate, and the means and standard derivations were calculated. […]

The subject of a further data set is CHO F17 cells. Nature of the data set: Cell adhesion assay, CHO F17. The format is cell-based. Particulars: CHO F17, 6 μM. The procedure: as §1, §2
Data set [1] concerns Jurkat cells. Nature of the data set: Cell growth assay (WST-8), Jurkat. The format is cell-based, human. How it is done: In (A) and (B), the cell growth was determined at 24, 48, and 72 hours after the addition of adhesamine (1) (6 μM). The cell growth in the presence of 1% (v/v) DMSO was assigned a value of 100%. The data shown are means±SD for a minimum of three experiments. (C) to (F) show the rearrangement of actin filaments in HepG2 and Jurkat cells in the presence of adhesamine (6 μM). Brightfield images (C and D) and confocal images (E and F) are shown. HepG2 (C and E) or Jurkat (D and F) cells were plated for 5 hours or 3 hours, respectively, and actin cytoskeletal was visualized using rhodamine-labeled phalloidin.
1 μL DMSO solution of adhesamine (1) was added to 96-well plate at a concentration of 600 μM. […] After incubation for indicated time, the cell viability was measured using Cell Counting Kit-8 (Dojindo Molecular Technologies, Inc., Gaithersburg, Md.), which contains a tetrazolium salt (WST-8) that produces a water-soluble formazan dye by NADH dehydrogenases in living cells. […] The optical density (OD) of the solution was read by a microplate reader, using a test wavelength at 450 nm and a reference wavelength at 650 nm. […] Each assay was conducted in triplicate, and the means and standard derivations were calculated for a minimum of three independent experiments.
(In general: Tetrazolium assays rely on reduction of a dye to a coloured formazan, in cell work by metabolically active cells.)

The test system of the next data set is CHO 677 cells. Nature of the data set: Cell adhesion assay, CHO 677. It is filed as cell-based. The note with it: CHO 677, 6 μM, vs parental CHO-K1. How it is done: as §1, §2
Data set [2] relates to Jurkat cells. Nature of the data set: Cell detachment assay. The format is cell-based, human. The note with it: 24 hour after washing (removal of adhesamine). The procedure: FIG. 2 is a graph illustrating a reversible activity of adhesamine (1). The attached cells were counted at the indicated time points after removal of adhesamine (1). In order to calculate adhesion rates, the number of cells before washing was assigned a value of 100%. Each assay was conducted in triplicate, and the means and the standard deviations were calculated for a minimum of three independent experiments.
1 μL DMSO solution of adhesamine (1) (6 mM) was dispensed to each well on a 96-well plate. Jurkat cells were suspended in the growth medium, and 100 μL of cell suspension was added to each well at a density of 1×10^6 cells/mL. After 5-hour incubation at 37° C., the medium was aspirated, and the plates were washed twice with PBS. 100 μL of fresh medium was added to each well. After further 4, 8, 14 and 24-hour incubation at 37° C., non-adhered cells were removed by washing with PBS twice, and the attached cells were counted with a Neubauer counting chamber. To calculate adhesion rates, the cell numbers before washing were assigned a value of 100%. Each assay was conducted in triplicate, and the means and standard derivations were calculated for a minimum of three independent experiments.

`CSc1nc(Cl)c(C=O)c(N2CC[N+]3(CC2)CC[N+]2(CCN(c4nc(SC)nc(Cl)c4C=O)CC2)CC3)n1` [adhesamine]: the “response of cell adhesion to adhesamine” value in the data set with CHO 745 cells is on record as “less responsive”; in the data set with CHO 606 cells, “less responsive”; in the data set with CHO F17 cells it was “responded”; in the data set with CHO 677 cells, “less responsive”. Also, the “enhancement of the adhesion of HepG2 cells” value in the data set on HepG2 cells is recorded as “up to twofold”. The cytotoxicity entry in the data set with Jurkat cells [1] (6 μM) is “no obvious cytotoxicity”. Besides, the “growth of the cells” value in the data set on Jurkat cells [1] (6 μM, 24, 48, 72 hours, vs 1% DMSO) is listed as “slightly enhanced”. Moreover, in the data set with Jurkat cells [2], the “Jurkat cells released from the surface of a culture plate” value came out at 93%.
